Test results as given in patent publication US6713476B2, “Substituted cycloalkyls as inhibitors of a beta protein production” (Dupont Pharmaceuticals Company, priority 2000, dated 2004).

Which melting point does the source give for CN1C(=O)[C@@H](NC(=O)C2(CNC3CCCCC3)CCCC2)N=C(c2ccccc2)c2ccccc21 here?
Its melting point is 82 to 86 °C.
